Values after ≈ are worked out from the molar mass of the structure shown. Residues, ends and D or L forms follow the SMILES beside them. *: point of attachment. Stearoyl = CCCCCCCCCCCCCCCCCC(=O)*; Palmitoyl = CCCCCCCCCCCCCCCC(=O)*; Myristoyl = CCCCCCCCCCCCCC(=O)*; Lauroyl = CCCCCCCCCCCC(=O)*; Octanoyl = CCCCCCCC(=O)*
Tests used:
[1] = system: Staphylococcus aureus; test: Antimicrobial activity against methicillin-resistant Staphylococcus aureus 75 after 18 hrs by broth microdilution method; type: functional
[2] = system: Bacillus subtilis; test: Antimicrobial activity against Bacillus subtilis ATCC 23857 after 18 hrs by broth microdilution method; type: functional
[3] = system: Staphylococcus aureus; test: Antimicrobial activity against Staphylococcus aureus ATCC 29213 after 18 hrs by broth microdilution method; type: functional
[4] = system: Staphylococcus epidermidis; test: Antimicrobial activity against Staphylococcus epidermidis ATCC 12228 after 18 hrs by broth microdilution method; type: functional
[5] = system: Staphylococcus aureus; test: Antimicrobial activity against methicillin-resistant Staphylococcus aureus 113 after 18 hrs by broth microdilution method; type: functional
[6] = Therapeutic index, ratio of MHC for mouse RBC to geometric mean of peptide MIC for Staphylococcus epidermidis ATCC 12228; type: toxicity; conditions: pooled result: one value given for 6 cell lines, strains, targets or settings, read-out: TI
[7] = system: Staphylococcus aureus; test: Antimicrobial activity against Staphylococcus aureus ATCC 25923 after 18 hrs by broth microdilution method; type: functional
[8] = system: Erythrocyte; test: Hemolytic activity against mouse erythrocytes measured after 1 hr; type: ADME, cell-based

| Structure (SMILES) | MIC [1] [µM] | MIC [2] [µM] | MIC [3] [µM] | MIC [4] [µM] | MIC [5] [µM] | selectivity ratio [6] | MIC [7] [µM] | MHC10 [8] [µM] |
| --- | --- | --- | --- | --- | --- | --- | --- | --- |
| CCCCCCCCCCCC(=O)N[C@@H](Cc1c[nH]c2ccccc12)C(=O)N[C@@H](CCCNC(=N)N)C(=O)N[C@@H](CCCNC(=N)N)C(N)=O (Lauroyl-Trp-Arg-Arg-NH2) | 8 (≈ 5.58 µg/mL) | 8 (≈ 5.58 µg/mL) | 8 (≈ 5.58 µg/mL) | 8 (≈ 5.58 µg/mL) | 4 (≈ 2.79 µg/mL) | 8.73 | 8 (≈ 5.58 µg/mL) | 64 |
| CCCCCCCCCCCCCC(=O)N[C@@H](CCCNC(=N)N)C(=O)N[C@@H](CCCNC(=N)N)C(=O)N[C@@H](CCCNC(=N)N)C(N)=O (Myristoyl-Arg-Arg-Arg-NH2) | 8 (≈ 5.57 µg/mL) | 8 (≈ 5.57 µg/mL) | 64 (≈ 44.5 µg/mL) | 8 (≈ 5.57 µg/mL) | 8 (≈ 5.57 µg/mL) | 6.86 | 16 (≈ 11.1 µg/mL) | 128 |
| CCCCCCCCCCCCCC(=O)N[C@@H](CCCNC(=N)N)C(=O)N[C@@H](CCCNC(=N)N)C(=O)N[C@@H](Cc1c[nH]c2ccccc12)C(N)=O (Myristoyl-Arg-Arg-Trp-NH2) | 2 (≈ 1.45 µg/mL) | 8 (≈ 5.81 µg/mL) | 4 (≈ 2.9 µg/mL) | 8 (≈ 5.81 µg/mL) | 2 (≈ 1.45 µg/mL) | 6 | 8 (≈ 5.81 µg/mL) | 32 |
| CCCCCCCCCCCCCC(=O)N[C@@H](CCCNC(=N)N)C(=O)N[C@@H](Cc1c[nH]c2ccccc12)C(=O)N[C@@H](CCCNC(=N)N)C(N)=O (Myristoyl-Arg-Trp-Arg-NH2) | 4 (≈ 2.9 µg/mL) | 8 (≈ 5.81 µg/mL) | 8 (≈ 5.81 µg/mL) | 4 (≈ 2.9 µg/mL) | 4 (≈ 2.9 µg/mL) | 10.7 | 8 (≈ 5.81 µg/mL) | 64 |
| CCCCCCCCCCCCCC(=O)N[C@@H](Cc1c[nH]c2ccccc12)C(=O)N[C@@H](CCCNC(=N)N)C(=O)N[C@@H](CCCNC(=N)N)C(N)=O (Myristoyl-Trp-Arg-Arg-NH2) | 2 (≈ 1.45 µg/mL) | 4 (≈ 2.9 µg/mL) | 8 (≈ 5.81 µg/mL) | 4 (≈ 2.9 µg/mL) | 2 (≈ 1.45 µg/mL) | 13.7 | 8 (≈ 5.81 µg/mL) | 64 |
| CCCCCCCC(=O)N[C@@H](CCCNC(=N)N)C(=O)N[C@@H](CCCNC(=N)N)C(=O)N[C@@H](Cc1c[nH]c2ccccc12)C(N)=O (Octanoyl-Arg-Arg-Trp-NH2) | 64 (≈ 41.1 µg/mL) | 32 (≈ 20.5 µg/mL) | 64 (≈ 41.1 µg/mL) | 64 (≈ 41.1 µg/mL) | 128 (≈ 82.2 µg/mL) | 7.38 | 64 (≈ 41.1 µg/mL) | > 256 |
| CCCCCCCC(=O)N[C@@H](CCCNC(=N)N)C(=O)N[C@@H](Cc1c[nH]c2ccccc12)C(=O)N[C@@H](CCCNC(=N)N)C(N)=O (Octanoyl-Arg-Trp-Arg-NH2) | 128 (≈ 82.2 µg/mL) | 64 (≈ 41.1 µg/mL) | 128 (≈ 82.2 µg/mL) | 128 (≈ 82.2 µg/mL) | 128 (≈ 82.2 µg/mL) | 3.69 | > 128 | > 256 |
| CCCCCCCC(=O)N[C@@H](CCCNC(=N)N)C(=O)N[C@@H](Cc1c[nH]c2ccccc12)C(=O)N[C@@H](Cc1c[nH]c2ccccc12)C(N)=O (Octanoyl-Arg-Trp-Trp-NH2) | 8 (≈ 5.37 µg/mL) | 16 (≈ 10.7 µg/mL) | 16 (≈ 10.7 µg/mL) | 16 (≈ 10.7 µg/mL) | 32 (≈ 21.5 µg/mL) | 29.5 | 16 (≈ 10.7 µg/mL) | > 256 |
| CCCCCCCC(=O)N[C@@H](Cc1c[nH]c2ccccc12)C(=O)N[C@@H](CCCNC(=N)N)C(=O)N[C@@H](CCCNC(=N)N)C(N)=O (Octanoyl-Trp-Arg-Arg-NH2) | 64 (≈ 41.1 µg/mL) | 64 (≈ 41.1 µg/mL) | 128 (≈ 82.2 µg/mL) | 32 (≈ 20.5 µg/mL) | 128 (≈ 82.2 µg/mL) | 5.65 | 128 (≈ 82.2 µg/mL) | > 256 |
| CCCCCCCCCCCCCCCC(=O)N[C@@H](CCCNC(=N)N)C(=O)N[C@@H](CCCNC(=N)N)C(=O)N[C@@H](CCCNC(=N)N)C(N)=O (Palmitoyl-Arg-Arg-Arg-NH2) | 8 (≈ 5.79 µg/mL) | 8 (≈ 5.79 µg/mL) | 32 (≈ 23.2 µg/mL) | 8 (≈ 5.79 µg/mL) | 2 (≈ 1.45 µg/mL) | 5.83 | 8 (≈ 5.79 µg/mL) | 64 |
| CCCCCCCCCCCCCCCC(=O)N[C@@H](CCCNC(=N)N)C(=O)N[C@@H](CCCNC(=N)N)C(=O)N[C@@H](Cc1c[nH]c2ccccc12)C(N)=O (Palmitoyl-Arg-Arg-Trp-NH2) | 8 (≈ 6.03 µg/mL) | 4 (≈ 3.02 µg/mL) | 8 (≈ 6.03 µg/mL) | 8 (≈ 6.03 µg/mL) | 2 (≈ 1.51 µg/mL) | 5.05 | 8 (≈ 6.03 µg/mL) | 32 |
| CCCCCCCCCCCCCCCC(=O)N[C@@H](CCCNC(=N)N)C(=O)N[C@@H](Cc1c[nH]c2ccccc12)C(=O)N[C@@H](CCCNC(=N)N)C(N)=O (Palmitoyl-Arg-Trp-Arg-NH2) | 8 (≈ 6.03 µg/mL) | 8 (≈ 6.03 µg/mL) | 16 (≈ 12.1 µg/mL) | 8 (≈ 6.03 µg/mL) | 4 (≈ 3.02 µg/mL) | 7.38 | 8 (≈ 6.03 µg/mL) | 64 |
| CCCCCCCCCCCCCCCC(=O)N[C@@H](CCCNC(=N)N)C(=O)N[C@@H](Cc1c[nH]c2ccccc12)C(=O)N[C@@H](Cc1c[nH]c2ccccc12)C(N)=O (Palmitoyl-Arg-Trp-Trp-NH2) | 32 (≈ 25.1 µg/mL) | 64 (≈ 50.2 µg/mL) | 32 (≈ 25.1 µg/mL) | 16 (≈ 12.5 µg/mL) | 8 (≈ 6.27 µg/mL) | 18.3 | 16 (≈ 12.5 µg/mL) | > 256 |
| CCCCCCCCCCCCCCCC(=O)N[C@@H](Cc1c[nH]c2ccccc12)C(=O)N[C@@H](CCCNC(=N)N)C(=O)N[C@@H](CCCNC(=N)N)C(N)=O (Palmitoyl-Trp-Arg-Arg-NH2) | 8 (≈ 6.03 µg/mL) | 8 (≈ 6.03 µg/mL) | 8 (≈ 6.03 µg/mL) | 8 (≈ 6.03 µg/mL) | 8 (≈ 6.03 µg/mL) | 4 | 8 (≈ 6.03 µg/mL) | 32 |
| CCCCCCCCCCCCCCCCCC(=O)N[C@@H](CCCNC(=N)N)C(=O)N[C@@H](CCCNC(=N)N)C(=O)N[C@@H](CCCNC(=N)N)C(N)=O (Stearoyl-Arg-Arg-Arg-NH2) | 4 (≈ 3.01 µg/mL) | 8 (≈ 6.02 µg/mL) | 4 (≈ 3.01 µg/mL) | 8 (≈ 6.02 µg/mL) | 2 (≈ 1.5 µg/mL) | 4 | 4 (≈ 3.01 µg/mL) | 32 |
| CCCCCCCCCCCCCCCCCC(=O)N[C@@H](CCCNC(=N)N)C(=O)N[C@@H](CCCNC(=N)N)C(=O)N[C@@H](Cc1c[nH]c2ccccc12)C(N)=O (Stearoyl-Arg-Arg-Trp-NH2) | 16 (≈ 12.5 µg/mL) | 8 (≈ 6.26 µg/mL) | 8 (≈ 6.26 µg/mL) | 4 (≈ 3.13 µg/mL) | 8 (≈ 6.26 µg/mL) | 3.69 | 8 (≈ 6.26 µg/mL) | 32 |
| CCCCCCCCCCCCCCCCCC(=O)N[C@@H](CCCNC(=N)N)C(=O)N[C@@H](Cc1c[nH]c2ccccc12)C(=O)N[C@@H](CCCNC(=N)N)C(N)=O (Stearoyl-Arg-Trp-Arg-NH2) | 8 (≈ 6.26 µg/mL) | 16 (≈ 12.5 µg/mL) | 128 (≈ 100 µg/mL) | 8 (≈ 6.26 µg/mL) | 8 (≈ 6.26 µg/mL) | 1.04 | 16 (≈ 12.5 µg/mL) | 32 |
| CCCCCCCCCCCCCCCCCC(=O)N[C@@H](CCCNC(=N)N)C(=O)N[C@@H](Cc1c[nH]c2ccccc12)C(=O)N[C@@H](Cc1c[nH]c2ccccc12)C(N)=O (Stearoyl-Arg-Trp-Trp-NH2) | > 128 | > 128 | > 128 | 128 (≈ 104 µg/mL) | > 128 | 1.09 | > 128 | 256 |
| CCCCCCCCCCCCCCCCCC(=O)N[C@@H](Cc1c[nH]c2ccccc12)C(=O)N[C@@H](CCCNC(=N)N)C(=O)N[C@@H](CCCNC(=N)N)C(N)=O (Stearoyl-Trp-Arg-Arg-NH2) | 8 (≈ 6.26 µg/mL) | 16 (≈ 12.5 µg/mL) | 32 (≈ 25 µg/mL) | 8 (≈ 6.26 µg/mL) | 16 (≈ 12.5 µg/mL) | 2 | 16 (≈ 12.5 µg/mL) | 32 |
